Data: patent US20140288110A1, “PPAR MODULATORS” (EVOLVA SA, priority 2006, published 2014)

Experiments:
Type in all cases: cell-based
hRXRαLBD = molecular target: T1, hRXRαLBD (Homo sapiens, UniProt P19793); assay: RXR transactivation assay (hRXRαLBD)
T1 construct: expressed in transfected cells
T1 sequence (P19793 227-458 limits assumed): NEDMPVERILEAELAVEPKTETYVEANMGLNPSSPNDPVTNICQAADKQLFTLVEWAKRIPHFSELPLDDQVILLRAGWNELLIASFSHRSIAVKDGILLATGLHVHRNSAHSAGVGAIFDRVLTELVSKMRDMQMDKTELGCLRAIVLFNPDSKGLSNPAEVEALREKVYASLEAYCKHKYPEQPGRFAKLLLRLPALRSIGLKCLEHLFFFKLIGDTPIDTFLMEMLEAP
Procedure: This example describes a retinoic acid X receptor transactivation assay.
Compounds are tested for their ability to transactivate RXR essentially as described in Example 1.

3T3-L1 preadipocytes = assay: Glucose uptake assay; parameters: dose or concentration left out as unconfirmed; details: SN1
Procedure: Glucose uptake assays are important to establish the suitability of a compound for the treatment of insulin resistance.
Briefly, 3T3-L1 preadipocytes are grown in 12-well plates until confluence. Cells are washed with serum-free DMEM and incubated with 1 ml of the same medium at 37° C. for 1-2 h. The cells are then washed with […] (KRP) buffer and then incubated with 0.9 ml KRP buffer at 37° C. for 30 min. Insulin is added to the cells at 0, 0.3, 1 and 3 nM final concentration and incubated for 15 min at 37° C. Glucose uptake is initiated by the addition of 0.1 ml of Krebs-Ringer phosphate (KRP) buffer supplemented with 10 mM [^3H] 2-deoxy-D-glucose (1 mCi/l). After a 10 minute incubation at 37° C., the medium is aspirated and plates washed with ice-cold PBS to terminate the induced glucose uptake. The cells are lyzed with 0.5 ml 1% Triton X-100 and radioactivity levels determined using a scintillation counter. The results are depicted in FIG. 7.

mPPARdeltaLBD = molecular target: T2, mPPARdeltaLBD (Mus musculus, UniProt P35396); assay: PPARdelta transactivation assay (mPPARdeltaLBD)
T2 construct: expressed in transfected cells
T2 sequence (P35396 210-438 limits assumed): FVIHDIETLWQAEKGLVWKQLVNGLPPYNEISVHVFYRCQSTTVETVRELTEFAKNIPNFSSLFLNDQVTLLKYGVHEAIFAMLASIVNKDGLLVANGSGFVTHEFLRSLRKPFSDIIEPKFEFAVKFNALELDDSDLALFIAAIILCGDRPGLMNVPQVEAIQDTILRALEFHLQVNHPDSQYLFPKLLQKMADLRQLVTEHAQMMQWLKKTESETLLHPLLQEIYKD
Procedure: This example describes a transactivation assay for determining PPARdelta modulating activity.
DPD and other ligands are tested for their ability to transactivate PPARdelta essentially as described in Example 1.

3T3-L1 cells = assay: Adipocyte differentiation assay, inhibition, Oil Red O staining
Procedure: To test compounds as inhibitors of adipocyte differentiation, 3T3-L1 cells are grown as above until two-day postconfluence (designated day 0), after which the cells are induced to differentiate with DMEM containing 10% fetal bovine serum (FBS), 1 μM dexamethasone (Sigma), 0.5 mM methylisobutylxanthine (Sigma), 1 μg/ml insulin (Roche Molecular Biochemicals) and the test-compound. Cells induced to differentiate in presence of solvent of the test-compounds are used as positive control. After 48 h, the cells are re-fed with DMEM containing 10% FBS supplemented with the test compound or the positive control. From day 4, cells are grown in DMEM with 10% FBS and are changed every second day until day 8. At day 8, cells are stained with Oil Red O as described below.
Cells cultured as described above are used for Oil Red staining. Dishes are washed in PBS and cells were fixed in 3.7% paraformaldehyde for 1 h and stained with oil red O as described in (Hansen et al 1999). Oil red O solution stock solution is prepared by dissolving 0.5 g of Oil Red O (Sigma) in 100 ml of isopropanol. Oil re O working solution is prepared by diluting a stock solution with water (6:4) followed by filtration.

[1] = tested on: PPARgamma ligand-binding domain (Gal4-PPARgammaLBD); assay: PPARgamma transactivation assay (Gal4-PPARgammaLBD, UASx4-TK luc reporter)
Source text: This is an example of a transactivation assay for determining PPAR gamma modulating activity.
The UASx4-TK-luc reporter construct (where UAS refers to “upstream activator sequence”) contains four Gal4-responsive elements. The plasmid Gal4-PPARgammaLBD encodes a Gal4-DBD-PPARgamma-LBD fusion protein (i.e. the DNA-binding domain, DBD, of Gal4 fused to the ligand-binding domain, LBD, of PPARgamma) capable of transactivating the UASx4-TK-luc reporter plasmid by binding to the UAS. The CMV-beta-galactosidase plasmid (where CMV is cytomegalovirus) is used for normalization of experimental values.
The cells were replated, typically in 24 well plates, so that at the time of transfection the cells are 50-70% confluent.
Briefly, per well in a 24 well plate, UASx4TKluc (0.2 microg) Gal4-PPARgammaLBD (or pM-hPPARgamma-LBD; 0.1 microg) and CMV-beta-galactosidase (0.05 microg) in 30 μL DMEM (free of serum and antibiotics) is mixed with 30 microL DMEM (free of serum and antibiotics) containing 1 microL metafectenein. The mixture is incubated at room temperature for 20 min to allow formation of nucleic acid-lipid complexes and then approximately 60 microL is added to each well containing the 50-60% confluent cells. […] Cells were harvested after 12-24 hours and luciferase and beta-galactosidase activities were measured according to standard protocols.
“−” means that testing was not performed.

HaCaT = assay: Proliferation of non-cancer cell line HaCaT, flow cytometry; details: 20 microM, 48 hours of treatment
Procedure: A human cervical carcinoma cell line (HeLa) engineered to stably express a recombinant biosensor reporter activity and a non-cancer cell line, HaCaT (Boukamp et al., 1988, J. Cell Biol 106(3):761-771) was used with a Caspa Tag kit (commercially available eg from Chemicon). The detection of proliferation was carried out using a high content screening automated flow cytometer.
DPD (Substance 1) was diluted to 20 microM in cell culture medium without serum adjusted to 1% DMSO. Detection of cellular events was performed in duplicate in 96-well plates after 48 hours of treatment in the FL2 (dilution of a proliferative marker) channels of a HTS flow cytometer (FACS Calibur HTS, Becton Dickenson). At day 1, cells were seeded in 96 well plates. Cells were treated with DPD and the appropriate controls on day 2 and analysis was carried out on day 4.

increase of RXR transactivation (hRXRαLBD): no transactivation
increase of PPAR delta transactivation (mPPARdeltaLBD): no or little increase in transactivation
PPAR gamma modulating activity, in words [1]: PPAR gamma agonist
Structure (SMILES): O=C(O)CC/C=C\C[C@@H]1CO[C@H](c2ccccc2Cl)O[C@@H]1c1ccccc1O (racemic) [SN1, 4-(Z)-6-(2-o-chlorophenyl-4-o-hydroxyphenyl-1,3-dioxan-cis-5-yl) hexenoic acid]
glucose uptake compared with Avandia (3T3-L1 preadipocytes): same level of glucose uptake
inhibition of adipocyte differentiation (3T3-L1 cells): no significant effect
effect on the non-cancer cell line HaCaT (HaCaT): no effect
